The values that follow come from ChEMBL document CHEMBL1149304, “1,3,4-thiadiazole derivatives. Synthesis, structure elucidation, and structure-antituberculosis activity relationship investigation” (2004).

The test deals with Mycobacterium tuberculosis. In words: Antituberculosis activity against Mycobacterium tuberculosis H37Rv ATCC 27294 at 6.25 ug/mL. It counts as functional.
Regarding `Brc1ccc(Nc2nnc(-c3ccc(Br)cc3)s2)cc1`, the inhibition – broadly, the change of the read-out against control, counted positive when it falls – at 6.25 µg/mL stood at 33%.

Consider `Fc1ccc(Nc2nnc(-c3ccccc3)s2)cc1`, for which the inhibition at 6.25 µg/mL was found to be 50%.

`O=[N+]([O-])c1ccc(Nc2nnc(-c3ccncc3)s2)cc1`: the inhibition at 6.25 µg/mL amounted to 18%.

Regarding `Fc1ccc(-c2nnc(Nc3ccc(Br)cc3)s2)cc1`, at 6.25 µg/mL the inhibition was 40%.

On to `Fc1ccc(-c2nnc(Nc3ccc(Cl)cc3)s2)cc1`, for which testing at 6.25 µg/mL gave an inhibition of 42%.

`O=[N+]([O-])c1ccc(Nc2nnc(-c3ccc(F)cc3)s2)cc1` registered an inhibition at 6.25 µg/mL of 8%.

`O=[N+]([O-])c1ccc(-c2nnc(Nc3ccc(Br)cc3)s2)cc1` returned an inhibition at 6.25 µg/mL of 26%.

Turning to `Cc1ccc(Nc2nnc(-c3ccc(Cl)cc3)s2)cc1`, the inhibition at 6.25 µg/mL amounted to 42%.

For the compound `Cc1ccc(Nc2nnc(-c3ccccc3)s2)cc1`, the inhibition at 6.25 µg/mL amounted to 21%.

Compound `Cc1ccc(Nc2nnc(-c3ccc(Br)cc3)s2)cc1` showed an inhibition at 6.25 µg/mL of 31%.

`Fc1ccc(Nc2nnc(-c3ccc(Cl)cc3)s2)cc1` displayed an inhibition at 6.25 µg/mL of 54%.

`Clc1ccc(Nc2nnc(-c3ccc(Br)cc3)s2)cc1` returned an inhibition at 6.25 µg/mL of 33%.

Turning to `Brc1ccc(-c2nnc(Nc3ccccc3)s2)cc1`, the inhibition at 6.25 µg/mL turned out to be 0%.

In turn, `O=[N+]([O-])c1ccc(Nc2nnc(-c3ccc(Br)cc3)s2)cc1` yielded an inhibition at 6.25 µg/mL of 43%.

For `O=[N+]([O-])c1ccc(Nc2nnc(-c3ccc([N+](=O)[O-])cc3)s2)cc1`, the inhibition at 6.25 µg/mL came out at 20%.

With `c1ccc(Nc2nnc(-c3ccncc3)s2)cc1`, the inhibition at 6.25 µg/mL amounted to 38%.

Turning to `O=[N+]([O-])c1ccc(-c2nnc(Nc3ccc(F)cc3)s2)cc1`, the inhibition at 6.25 µg/mL is 30%.

For `Clc1ccc(Nc2nnc(-c3ccc(Cl)cc3)s2)cc1`, the inhibition at 6.25 µg/mL came to 32%.

In turn, `O=[N+]([O-])c1ccc(Nc2nnc(-c3ccccc3)s2)cc1` yielded an inhibition at 6.25 µg/mL of 18%.

With `Brc1ccc(Nc2nnc(-c3ccccc3)s2)cc1`, the inhibition at 6.25 µg/mL was determined as 36%.

The compound `Fc1ccc(Nc2nnc(-c3ccncc3)s2)cc1` came in with an inhibition at 6.25 µg/mL of 49%.

As to `Clc1ccc(Nc2nnc(-c3ccccc3)s2)cc1`, the inhibition at 6.25 µg/mL was 30%.

`Fc1ccc(Nc2nnc(-c3ccc(F)cc3)s2)cc1` showed an inhibition at 6.25 µg/mL of 52%.

The compound `O=[N+]([O-])c1ccc(-c2nnc(Nc3ccc(Cl)cc3)s2)cc1` gave an inhibition at 6.25 µg/mL of 29%.

With `Fc1ccc(Nc2nnc(-c3ccc(Br)cc3)s2)cc1`, testing at 6.25 µg/mL gave an inhibition of 42%.

As to `Cc1ccc(Nc2nnc(-c3ccc([N+](=O)[O-])cc3)s2)cc1`, the inhibition at 6.25 µg/mL was 33%.

`Clc1ccc(-c2nnc(Nc3ccc(Br)cc3)s2)cc1` gave an inhibition at 6.25 µg/mL of 34%.

`O=[N+]([O-])c1ccc(Nc2nnc(-c3ccc(Cl)cc3)s2)cc1` came in with an inhibition at 6.25 µg/mL of 44%.

As for `Cc1ccc(Nc2nnc(-c3ccncc3)s2)cc1`, at 6.25 µg/mL the inhibition was 38%.

Consider `Brc1ccc(Nc2nnc(-c3ccncc3)s2)cc1`, for which testing at 6.25 µg/mL gave an inhibition of 53%.

For `Clc1ccc(Nc2nnc(-c3ccncc3)s2)cc1`, the inhibition at 6.25 µg/mL turned out to be 59%.

`Cc1ccc(Nc2nnc(-c3ccc(F)cc3)s2)cc1`: the inhibition at 6.25 µg/mL worked out at 39%.
